The record followed here is PMC8397425, “A Strategy to Conjugate Bioactive Fragments to Cytotoxic Diiron Bis(cyclopentadienyl) Complexes” (Organometallics, 2021).

For series [1], the system named is Human Ovarian Carcinoma (A2780) cell line. Put plainly: MTT cytotoxicity, A2780. In kind it is cell-based. The following applies: for IC50: 72 h exposure, MTT, mean ± SD. An excerpt: (§1) Human ovarian carcinoma (A2780 and A2780cisR) cell lines were obtained from the European Collection of Cell Cultures. The Human Embryonic Kidney 293T (HEK 293T) cell line was obtained from the ATCC (Sigma, Buchs, Switzerland). Penicillin–streptomycin, RPMI 1640 GlutaMAX (where RPMI = Roswell Park Memorial Institute), and DMEM GlutaMAX media (where DMEM = Dulbecco’s modified Eagle medium) were obtained from Life Technologies, and fetal bovine serum (FBS) was obtained from Sigma. The cells were cultured in RPMI 1640 GlutaMAX (A2780 and A2780cisR) and DMEM GlutaMAX (HEK 293T) media containing 10% heat-inactivated FBS and 1% penicillin–streptomycin at 37 °C and CO2 (5%). The A2780cisR cell line was routinely treated with cisplatin (2 μM) in the media to maintain cisplatin resistance. The cytotoxicity was determined using the 3-(4,5-dimethyl-2-thiazolyl)-2,5-diphenyl-2H-tetrazolium bromide (MTT) assay.[42] Cells were seeded in flat-bottomed 96-well plates as a suspension in a prepared medium (100 μL aliquots and approximately 4300 cells/well) and preincubated for 24 h. Stock solutions of compounds were prepared in DMSO and were diluted in the medium. The solutions were sequentially diluted to give a final DMSO concentration of 0.5% and a final compound concentration range of 0–200 μM. Cisplatin was tested as a positive (0–100 μM) control. The compounds were placed in the preincubated 96-well plates in 100 μL aliquots, and the plates were incubated for a further 72 h. MTT (20 μL, 5 mg/mL in Dulbecco’s phosphate buffered saline) was placed in the cells, and the plates were incubated for a further 4 h. The culture medium was aspirated, and the purple formazan crystals, formed by the mitochondrial dehydrogenase activity of vital cells, were dissolved in DMSO (100 μL/well). The absorbance of the resulting solutions, directly proportional to the number of surviving cells, was quantified at 590 nm using a SpectroMax M5e multimode microplate reader (using SoftMax Pro software, version 6.2.2). The percentage of surviving cells was calculated from the absorbance of wells corresponding to the untreated control cells. The reported IC50 values are based on the means from two independent experiments, each comprising four tests per concentration level.

Series [2] deals with Human Ovarian Carcinoma Cisplatin Resistant (A2780cisR) cell line. Put plainly: MTT cytotoxicity, A2780cisR. The following applies: 72 h exposure, mean ± SD. In kind it is cell-based.
From the text: as §1

The target of series [3] is T1, bovine serum albumin (BSA) (Bos taurus, UniProt P02769).
T1 construct: bovine serum albumin (BSA, lyophilized powder, crystallized, ≥98.0%); purchased Merck
Description: BSA fluorescence quenching titration. In kind it is binding. As to conditions: pH 7.0 buffer, NaCl 0.1 M, NaCac 0.01 M; for Log K (binding constant, compound/BSA): 1:1 model, 25 °C. An excerpt: The interaction of [4]CF3SO3 and [9]CF3SO3 with bovine serum albumin (BSA) as a model protein was also explored. The addition of the metal complex to the protein in pH buffer solution (pH 7.0 buffer; NaCl 0.1 M, NaCac 0.01 M) produced a quenching of the intrinsic fluorescence emission of the latter. A data fit, according to the Stern–Volmer equation,[11] provided quenching constants (KSV) values equal to ca. 3.4 × 10^4 for both systems, indicative that a binding event occurs (Figure S1).[32] […] More precisely, the binding constant (10^6) appears to be high enough to ensure adduct formation but also weak enough to release the complex once the biotarget is reached; this is assumed to be the optimal condition for BSA-driven transport and diffusion of a drug.[34]
Ethidium bromide (EB, ≥98.0%), bovine serum albumin (BSA, lyophilized powder, crystallized, ≥98.0%), and natural double-stranded DNA from calf thymus (DNA, lyophilized powder, Na^+ salt in the form of fibers) were purchased from Merck, while anhydrous guanosine 5′-monophosphate disodium salt (Na2[GMP], >98.0%) was purchased from TCI Chemicals. Prior to use, DNA was sonicated to ca. 500 base pair length (MSE-Sonyprep sonicator, 7 cycles of 10 s sonication + 20 s pause at an amplitude of 14 μm, solution kept in ice bath—the final length was checked by agarose gel electrophoresis tests on the sample using a 100 bp DNA ladder) to produce stock solutions in water (ca. 2 mM). Stock solutions of EB and BSA were prepared by weighing directly in the buffer (NaCl 0.1 M, NaCac 0.01M, pH 7.0—NaCac is sodium cacodylate). […] Molar concentrations of solutions of EB (CEB), BSA (CBSA), and DNA (CDNA) were determined by absorbance measurements (εEB^480 nm = 5700 M^–1 cm^–1; εBSA^278 nm = 44000 M^–1 cm^–1; εDNA^260 nm = 13200 M^–1 cm^–1 for a concentration expressed in base pairs). […] In EB/DNA exchange experiments, EB was added to DNA until the fluorescence emission at λex = 520 nm/λem = 595 nm (diagnostic wavelengths for the DNA-intercalated EB only) started to reach the plateau (CEB = 5.60 × 10^–5 M, CDNA = 1.15 × 10^–4 M). […] The total maximum amount of DMSO was checked (<3%) as well as the metal complex absorbance at the set wavelengths (A < 0.05 to ensure negligible inner filter effects). Note that a blank test was carried out by adding DMSO to the EB/DNA mixture, in order to quantify fluorescence changes due only to dilution/solvent effects. For BSA fluorescence titrations, the working solution of the metal complex (4.42 × 10^–5 M for [4]CF3SO3, 4.59 × 10^–5 M for [9]CF3SO3, both in the buffer) was added to a 3.34 × 10^–7 M BSA solution in the buffer (λex = 280 nm, λem = 345 nm, dilution from stock such that the DMSO content is negligible). […]

T1 sequence (P02769 25-607): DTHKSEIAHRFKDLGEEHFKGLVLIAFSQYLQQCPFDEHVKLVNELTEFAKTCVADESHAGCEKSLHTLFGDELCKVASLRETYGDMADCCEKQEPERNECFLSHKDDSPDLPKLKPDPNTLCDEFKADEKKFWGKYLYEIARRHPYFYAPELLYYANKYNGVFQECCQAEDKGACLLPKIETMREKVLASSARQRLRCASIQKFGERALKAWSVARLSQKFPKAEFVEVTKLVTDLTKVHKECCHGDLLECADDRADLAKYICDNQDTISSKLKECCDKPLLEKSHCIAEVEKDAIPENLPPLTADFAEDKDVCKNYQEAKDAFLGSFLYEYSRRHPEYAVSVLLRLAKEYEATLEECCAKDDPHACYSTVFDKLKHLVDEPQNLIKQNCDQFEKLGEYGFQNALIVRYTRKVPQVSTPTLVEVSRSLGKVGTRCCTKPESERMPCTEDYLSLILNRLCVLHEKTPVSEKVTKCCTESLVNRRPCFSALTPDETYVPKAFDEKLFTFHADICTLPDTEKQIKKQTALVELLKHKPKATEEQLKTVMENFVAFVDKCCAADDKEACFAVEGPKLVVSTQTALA

One may read the IC50 as the midpoint of a concentration-inhibition curve. The low end stands for inhibition by little substance, the high end for a need for much substance. Turning to “[Fe2Cp2(CO)(μ-CO){μ-η^1:η^3-Cγ(3-C6H4OC(=O)C6H4OC(=O)Me)CβHCαNMe(Xyl)}]CF3SO3 [[4]CF3SO3]”, in series [1], the IC50 came to 2800 ± 400 nM. In series [2], the 50% inhibitory concentration (IC50) amounted to 2600 ± 400 nM. Also, in series [3], the “Log K (binding constant, compound/BSA)” value worked out at 5.9 ± 0.1 and the “Stern–Volmer quenching constant (KSV)” value is on record as “ca. 3.4 × 10^4”.

Consider “[Fe2Cp2(CO)(μ-CO){μ-η^1:η^3-Cγ(3-C6H4NHC(=O)(CH2)3C6H4N(CH2CH2Cl)2)CβHCαNMe2}]CF3SO3 [[9]CF3SO3]”, for which the IC50 amounted to 1800 ± 300 nM in series [1] and 3800 ± 300 nM in series [2]. Further, the “selectivity (SI)” value in series [1] (HEK 293T relative to A2780) was 5. The “Log K (binding constant, compound/BSA)” value in series [3] was determined as 6.5 ± 0.1. Besides, in series [3], the “Stern–Volmer quenching constant (KSV)” value is “ca. 3.4 × 10^4”.
